In test [1] the test system is PDGFR. The settings on record: read-out: inhibition of PDGFR, cell-free assay; cited from earlier work.
The test system of test [2] is VEGFR. The settings on record: read-out: inhibition of VEGFR, cell-free assay; cited from earlier work.
For test [3], the system named is c-KIT. The settings on record: read-out: inhibition of c-KIT, cell-free assay; cited from earlier work.
The target of test [4] is T1, MEK7 (Homo sapiens, UniProt O14733).
T1 sequence (O14733 1-419): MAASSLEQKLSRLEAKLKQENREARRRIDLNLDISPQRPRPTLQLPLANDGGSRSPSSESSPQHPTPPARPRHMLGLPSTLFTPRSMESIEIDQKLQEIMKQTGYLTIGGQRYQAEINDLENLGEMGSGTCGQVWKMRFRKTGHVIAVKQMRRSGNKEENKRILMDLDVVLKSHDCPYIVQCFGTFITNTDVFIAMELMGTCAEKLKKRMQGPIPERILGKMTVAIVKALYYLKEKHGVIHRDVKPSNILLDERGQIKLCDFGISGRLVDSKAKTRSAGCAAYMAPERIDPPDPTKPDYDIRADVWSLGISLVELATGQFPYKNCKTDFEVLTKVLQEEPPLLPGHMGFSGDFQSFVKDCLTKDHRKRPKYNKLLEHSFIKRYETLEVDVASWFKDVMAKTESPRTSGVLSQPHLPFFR
Nature of the test: ADP-Glo biochemical kinase assay, MEK7. The settings on record: functional profiling assay.

The target of test [5] is MEK5 (Homo sapiens, UniProt Q13163). Nature of the test: ADP-Glo biochemical kinase assay, MEK5. The settings on record: functional profiling assay.
Chain of MEK5 (Q13163 whole entry): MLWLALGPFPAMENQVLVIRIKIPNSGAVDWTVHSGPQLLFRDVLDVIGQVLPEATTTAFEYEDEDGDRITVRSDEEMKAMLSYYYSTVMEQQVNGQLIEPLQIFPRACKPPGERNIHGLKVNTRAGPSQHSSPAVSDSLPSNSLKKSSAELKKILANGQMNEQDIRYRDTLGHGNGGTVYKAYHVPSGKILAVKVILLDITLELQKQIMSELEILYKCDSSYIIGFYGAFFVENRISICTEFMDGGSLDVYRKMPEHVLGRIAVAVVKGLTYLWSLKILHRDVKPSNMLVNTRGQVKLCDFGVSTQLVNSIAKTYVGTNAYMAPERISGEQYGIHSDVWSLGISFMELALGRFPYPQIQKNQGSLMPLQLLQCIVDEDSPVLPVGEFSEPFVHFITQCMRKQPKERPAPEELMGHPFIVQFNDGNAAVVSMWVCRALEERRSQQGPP
Test [6] deals with T2, MEK6 (Homo sapiens, UniProt P52564).
T2 sequence (P52564 1-334): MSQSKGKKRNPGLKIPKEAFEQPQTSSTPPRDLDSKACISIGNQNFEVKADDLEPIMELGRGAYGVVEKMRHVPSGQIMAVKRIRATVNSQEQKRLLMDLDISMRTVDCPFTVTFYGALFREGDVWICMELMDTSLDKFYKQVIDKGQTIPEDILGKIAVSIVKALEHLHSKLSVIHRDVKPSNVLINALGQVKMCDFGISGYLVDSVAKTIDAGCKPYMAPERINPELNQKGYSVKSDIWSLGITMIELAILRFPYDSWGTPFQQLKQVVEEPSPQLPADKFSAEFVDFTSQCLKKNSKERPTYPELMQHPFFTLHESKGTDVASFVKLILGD
Nature of the test: ADP-Glo biochemical kinase assay, MEK6.

Test [7] addresses T3, MEK4 (Homo sapiens, UniProt P45985).
T3 sequence (P45985 1-399): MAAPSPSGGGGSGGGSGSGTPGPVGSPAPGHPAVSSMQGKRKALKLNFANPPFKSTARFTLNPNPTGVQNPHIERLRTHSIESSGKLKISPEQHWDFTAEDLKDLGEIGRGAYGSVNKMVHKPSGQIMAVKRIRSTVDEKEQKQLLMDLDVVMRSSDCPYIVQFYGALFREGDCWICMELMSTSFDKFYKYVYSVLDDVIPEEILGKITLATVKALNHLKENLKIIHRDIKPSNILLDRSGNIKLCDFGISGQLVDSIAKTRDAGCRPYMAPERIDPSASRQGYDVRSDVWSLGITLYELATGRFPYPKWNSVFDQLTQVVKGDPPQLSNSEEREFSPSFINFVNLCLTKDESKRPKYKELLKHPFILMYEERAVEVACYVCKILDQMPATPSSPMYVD
Nature of the test: ADP-Glo biochemical kinase assay, MEK4. The settings on record: read-out: IC50 against MEK4, ATP below Km.

Entries after “also recorded” stand apart in the source; their conditions may differ. Read-outs that look alike come from different tables or passages of the source.

Take “5-[[4-[(2, 3-Dimethyl-2 H-indazol-6-yl) methylamino]-2-pyrimidinyl] amino]-2-methyl-benzene-sulfonamide [Pazopanib]”: the IC50 in test [1] is 0.084 µM; in test [2], 0.01 to 0.047 µM; in test [3] it was 0.14 µM.

With `CCN1CCN(Cc2ccc(NC(=O)Nc3ccc(Oc4cc(NC)ncn4)cc3)cc2C(F)(F)F)CC1` [AST-487], in test [4], the “inhibition of MEK7 (in words)” value is “inhibition; also recorded: strongly inhibited”. In test [5], the “inhibition of MEK5 (in words)” value was “strongly inhibited”.

Turning to `CN(C)C[C@@H]1CCn2cc(c3ccccc32)C2=C(C(=O)NC2=O)c2cn(c3ccccc23)CCO1` [LY-333531], the “inhibition of MEK7 (in words)” value in test [4] is given as “inhibition”. In test [6], `CCCS(=O)(=O)Nc1ccc(F)c(C(=O)c2c[nH]c3ncc(Cl)cc23)c1F` [PLX-4720] had an IC50 of 60 µM. For `O=C(c1c(F)cccc1F)c1c[nH]c2ncc(Cl)cc12` [compound 3a], the IC50 in test [7] was 6.9 µM; in test [6] (read-out: IC50 against MEK6, ADP-Glo, ATP below Km) it was 75.1 µM.
